# Where two headings read alike, the source gives them in different places.
# What was measured:
# Assay type in all cases: cell-based, human
# [1] = system: Colo320/MDR-LRP colon adenocarcinoma cell line; experiment: MTT cytotoxicity assay on doxorubicin-resistant, ABCB1- and LRP-expressing Colo320 cells; conditions: for IC50: Homo sapiens, COLO 320; for IC50 / Cytotoxic effect on Colo320 cells (in words): MTT; for Selectivity index SI MRC-5/Colo320: ratio of IC50 in non-tumor MRC-5 cells and IC50 in Colo320; for Cytotoxic effect on Colo320 cells (in words): up to 100 µM
# Experimental: (§1) The doxorubicin-sensitive Colo205 (ATCC-CCL-222) and the doxorubicin-resistant ABCB1- and LRP-expressing Colo320/MDR-LRP (ATCC-CCL-220.1) human colon adenocarcinoma cell lines were obtained from LGC Promochem in Teddington, UK. These cell lines were cultivated in RPMI 1640 medium supplemented with 10% heat-inactivated foetal bovine serum (FBS), 2 mM L-glutamine, 1 mM Na-pyruvate, 10 mM HEPES, along with nystatin, and gentamicin. The normal MRC-5 (ATCC CCL-171) human embryonic lung fibroblast cell line was purchased from Sigma-Aldrich (Merck KGaA, Darmstadt, Germany). The MRC-5 cells were cultured in EMEM medium, supplemented with 1% non-essential amino acid (NEAA) mixture, a selection of vitamins, 10% heat-inactivated FBS, 2 mM L-glutamine, 1 mM Na pyruvate, nystatin, and gentamicin. The cell lines were incubated in humidified atmosphere (5% CO2, 95% air) at 37 °C. The cells were detached with a Trypsin-Versene (EDTA) solution for 5 min at 37 °C.
# (§2) The effects of increasing concentrations of the compounds on cell growth were tested in 96-well flat-bottomed microtiter plates. Namely, 1 × 10^4 of human colonic adenocarcinoma cells in 100 μL of the medium (RPMI 1640) were added to each well, except for the medium control wells. The adherent human embryonic lung fibroblast cell line was seeded in the EMEM medium for 24 h before the assay. The two-fold serial dilutions of the compounds were made in a separate plate (100–0.19 μM) and then transferred to the plates containing the cells. The starting concentration of the solvent DMSO was 2% v/v, and the highest concentration of the compounds in the plate was 100 μM. Plates were incubated at 37 °C for 24 h. At the end of the incubation, 20 μL of MTT (thiazolyl blue tetrazolium bromide) solution (from a 5 mg/mL stock solution) was added to each well. After incubation at 37 °C for 4 h, 100 μL of sodium dodecyl sulfate (SDS) solution (10% SDS in 0.01 M HCl) was added to each well, and the plates were further incubated at 37 °C overnight. Cell growth was determined by measuring the optical density (OD) at 540 nm (ref. 630 nm) with a Multiscan EX ELISA reader (Thermo Labsystems, Cheshire, WA, USA). Inhibition of cell growth was expressed as IC50 values, defined as the inhibitory dose that reduces the growth of the cells exposed to the tested compounds by 50%. IC50 values and the SD of triplicate and duplicate (in the case of MRC-5) experiments were calculated by using GraphPad Prism software version 5.00 for Windows, with a non-linear regression curve fit (GraphPad Software, San Diego, CA, USA; www.graphpad.com, accessed on 12 July 2021). Doxorubicin (from a 2 mg/mL stock solution, Teva Pharmaceuticals) was used as a positive control. […] The relative resistance (RR) was calculated as the ratio of the IC50 value in the resistant cancer cells and the IC50 value in the sensitive cancer cell lines. The selectivity indexes (SI) were calculated as the ratio of the IC50 value in the non-tumor cells and the IC50 value in the cancer cell lines. The activity of the compounds towards cancer cells is considered to be strongly selective if the selectivity index (SI) value is higher than 6, moderately selective if 3 < SI < 6, slightly selective if 1 < SI < 3, and non-selective if the SI is lower than 1 [22].
# [2] = system: Colo205 colon adenocarcinoma cell line; experiment: MTT cytotoxicity assay on doxorubicin-sensitive Colo205 cells; conditions: for IC50: Homo sapiens, COLO 205; for IC50 / Cytotoxic effect on Colo205 cells (in words): MTT; for Selectivity index SI MRC-5/Colo205: ratio of IC50 in non-tumor MRC-5 cells and IC50 in Colo205; for Cytotoxic effect on Colo205 cells (in words): up to 100 µM
# Experimental: as §1, §2
# [3] = system: MRC-5 embryonic lung fibroblast cell line; experiment: MTT cytotoxicity assay on normal MRC-5 fibroblasts; conditions: for IC50: Homo sapiens; for Cytotoxic effect on normal MRC-5 cells (in words): up to 100 µM
# Experimental: as §1, §2
# [4] = 24 h, single experiment, read-out: IC50 Colo320, parallel experiment 1
# [5] = 24 h, single experiment, read-out: IC50 Colo320, parallel experiment 2
# [6] = 24 h, single experiment, read-out: IC50 Colo320, parallel experiment 3
# [7] = 24 h incubation, average of 3 parallel experiments, read-out: IC50 Colo320 AV ± SD
# [8] = 24 h, single experiment, read-out: IC50 Colo205, parallel experiment 1
# [9] = 24 h, single experiment, read-out: IC50 Colo205, parallel experiment 2
# [10] = 24 h, single experiment, read-out: IC50 Colo205, parallel experiment 3
# [11] = 24 h incubation, average of 3 parallel experiments, read-out: IC50 Colo205 AV ± SD
# [12] = MRC5, 24 h incubation, average of 2 parallel experiments, read-out: IC50 MRC-5 AV ± SD
# [13] = MRC5, 24 h, single experiment, read-out: IC50 MRC-5, parallel experiment 1
# [14] = MRC5, 24 h, single experiment, read-out: IC50 MRC-5, parallel experiment 2
SMILES,"IC50 [1, 4] [µM]","IC50 [1, 5] [µM]","IC50 [1, 6] [µM]","IC50 [1, 7] [µM]","IC50 [2, 8] [µM]","IC50 [2, 9] [µM]","IC50 [2, 10] [µM]","IC50 [2, 11] [µM]","IC50 [3, 12] [µM]",Selectivity index SI MRC-5/Colo320 [1],Selectivity index SI MRC-5/Colo205 [2],"IC50 [3, 13] [µM]","IC50 [3, 14] [µM]",Cytotoxic effect on normal MRC-5 cells (in words) [3],Cytotoxic effect on Colo320 cells (in words) [1],Cytotoxic effect on Colo205 cells (in words) [2]
"COc1cccc2c1C(=O)c1c(O)c3c(c(O)c1C2=O)C[C@@](O)(C(=O)CO)C[C@@H]3O[C@H]1C[C@H](N)[C@H](O)[C@H](C)O1 [DOX, Doxorubicin, reference compound]",3.12,3.12,2.96,3.07 ± 0.09,0.84,0.89,0.81,0.85 ± 0.04,> 8.62,,,,,,,
"CCOC(=O)C(c1cc(Cl)c2cccnc2c1O)c1c[nH]c2ccccc12 (stereo not shown) [Compound 11, Ethyl 2-(5-chloro-8-hydroxyquinolin-7-yl)-2-(1H-indol-3-yl)acetate]",4.64,4.83,4.96,4.81 ± 0.16,5.51,4.71,4.42,4.88 ± 0.56,54.77 ± 0.44,11.4,11.2,54.5,55.1,mild cytotoxic effect,,
"Oc1c(Cc2c[nH]c3ccccc23)cc(Cl)c2cccnc12 [Compound 16, 7-((1H-indol-3-yl)methyl)-5-chloroquinolin-8-ol]",4.97,4.74,4.91,4.87 ± 0.12,13.6,13.4,12.3,13.1 ± 0.7,> 100,>6,>6,,,no toxicity,potent toxic activity,
"Oc1c(C(c2ccccc2)c2c[nH]c3ccccc23)cc(Cl)c2cccnc12 (stereo not shown) [Compound 14, 7-((1H-indol-3-yl)(phenyl)methyl)-5-chloroquinolin-8-ol]",2.55,2.84,2.78,2.72 ± 0.15,2.49,2.49,2.63,2.53 ± 0.08,29.7 ± 0.57,11,11.7,30.1,29.3,mild cytotoxic effect,,
"Oc1c(Cc2c[nH]c3ncccc23)cc(Cl)c2cccnc12 [Compound 17, 7-((7-azaindole-3-yl)methyl)-5-chloroquinolin-8-ol]",23,21.9,22.5,22.5 ± 0.55,36.5,39.4,40.4,38.8 ± 2.03,> 100,,,,,,,
"CCOC(=O)C(c1ccc2ccccc2c1O)c1c[nH]c2ccccc12 (stereo not shown) [Compound 7, Ethyl 2-(1-hydroxynaphthalen-2-yl)-2-(1H-indol-3-yl)acetate]",53.8,54.9,52.2,53.6 ± 1.38,,,,> 100,> 100,,,,,,,no effect
"O=C1Oc2ccc3ccccc3c2C1c1c[nH]c2ccccc12 (stereo not shown) [Compound 3, 1-(1H-indol-3-yl)naphtho[2,1-b]furan-2(1H)-one]",,,,> 100,,,,> 100,> 100,,,,,,no effect,no effect
"CCOC(=O)C(c1cc(Cl)c2cccnc2c1O)N1CCOCC1 (stereo not shown) [Compound 10, Ethyl 2-(5-chloro-8-hydroxyquinolin-7-yl)-2-morpholinoacetate]",1.56,1.81,1.79,1.72 ± 0.14,2.07,2.06,2.02,2.05 ± 0.02,> 100,>6,>6,,,no toxicity,,
"CCOC(=O)C(c1cc(Cl)c2cccnc2c1O)c1c[nH]c2ncccc12 (stereo not shown) [Compound 12, Ethyl 2-(5-chloro-8-hydroxyquinolin-7-yl)-2-(7-azaindole-3-yl)acetate]",5.16,4.92,5.11,5.06 ± 0.12,8.05,7.42,8.84,8.11 ± 0.71,46.2 ± 0.95,9.1,5.7,46.9,45.6,mild cytotoxic effect,,

# — paper PMC11396803, “Synthesis of Tumor Selective Indole and 8-Hydroxyquinoline Skeleton Containing Di-, or Triarylmethanes with Improved Cytotoxic Activity” (Molecules, 2024)
